Measurements: ChEMBL document CHEMBL5029145, “Discovery of AZD8154, a Dual PI3Kγδ Inhibitor for the Treatment of Asthma” (J Med Chem, 2021)
Calls of active or inactive are those of the source. The rule behind the calls is not given here.

Experiments:
[1] = target: T1, Phosphatidylinositol 4,5-bisphosphate 3-kinase catalytic subunit delta isoform (Homo sapiens, UniProt O00329); assay: Inhibition of recombinant human PI3Kdelta assessed as reduction in ADP production using Dic8-PIP2 as substrate pre-treated for 15 mins followed by substrate addition measured after 60 mins by ADP-glo assay
T1 sequence (O00329 whole entry): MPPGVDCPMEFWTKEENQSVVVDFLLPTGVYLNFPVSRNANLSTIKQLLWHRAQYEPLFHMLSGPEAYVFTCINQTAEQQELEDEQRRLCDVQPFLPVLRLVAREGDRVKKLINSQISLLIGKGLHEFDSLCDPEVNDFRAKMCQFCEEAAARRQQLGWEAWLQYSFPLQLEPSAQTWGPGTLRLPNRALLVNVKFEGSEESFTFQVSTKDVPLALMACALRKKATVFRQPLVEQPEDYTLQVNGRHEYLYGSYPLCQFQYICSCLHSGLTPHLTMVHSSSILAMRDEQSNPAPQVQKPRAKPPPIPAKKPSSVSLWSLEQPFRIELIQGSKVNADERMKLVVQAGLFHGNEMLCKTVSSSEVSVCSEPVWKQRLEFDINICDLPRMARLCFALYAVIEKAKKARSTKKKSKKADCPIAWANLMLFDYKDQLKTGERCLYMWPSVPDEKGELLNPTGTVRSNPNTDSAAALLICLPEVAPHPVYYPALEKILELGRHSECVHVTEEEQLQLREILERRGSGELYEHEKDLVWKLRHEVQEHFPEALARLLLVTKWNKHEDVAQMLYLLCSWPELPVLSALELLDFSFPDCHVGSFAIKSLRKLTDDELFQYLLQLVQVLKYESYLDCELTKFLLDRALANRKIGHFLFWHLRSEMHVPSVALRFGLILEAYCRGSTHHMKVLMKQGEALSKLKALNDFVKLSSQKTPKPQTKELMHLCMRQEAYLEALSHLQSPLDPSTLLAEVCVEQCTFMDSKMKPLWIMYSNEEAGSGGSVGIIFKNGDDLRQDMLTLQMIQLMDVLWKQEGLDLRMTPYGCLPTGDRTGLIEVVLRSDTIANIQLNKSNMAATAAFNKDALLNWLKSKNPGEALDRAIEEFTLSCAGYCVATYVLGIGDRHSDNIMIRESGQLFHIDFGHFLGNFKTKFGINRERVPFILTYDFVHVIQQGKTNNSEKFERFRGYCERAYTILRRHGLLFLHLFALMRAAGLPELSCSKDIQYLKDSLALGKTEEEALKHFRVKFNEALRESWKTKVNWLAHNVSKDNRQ

[2] = Apparent permeability in human Caco2 cells; type: ADME, cell-based; conditions: caco-2
[3] = target: Phosphatidylinositol 4-kinase beta (Homo sapiens, UniProt Q9UBF8); assay: Inhibition of PI4KB (unknown origin) assessed as reduction in substrate phosphorylation by FRET Adapta assay
[4] = target: Phosphatidylinositol 4-kinase alpha (Homo sapiens, UniProt P42356); assay: Inhibition of PI4KA (unknown origin) assessed as reduction in substrate phosphorylation by FRET Adapta assay
[5] = Volume of distribution at steady state in rat at 0.5 mg/kg, iv; type: ADME, organism-based; conditions: in vivo, read-out: Vdss
Rattus norvegicus = assay: Antiinflammatory activity in ovalbumin induced Brown Norway rat assessed as reduction in eosinophil counts in lung lavage fluid at 240 microg/kg administered using nebulizer for 12 hrs prior to ovalbumin challenge measured after 48 hrs by flow cytometry; type: functional, organism-based; conditions: dose 240.0 µg/kg, time 60.0 hrs
[6] = Clearance in rat at 0.5 mg/kg, iv; type: ADME, organism-based; conditions: in vivo
[7] = target: T2, Phosphatidylinositol 3-kinase C2 domain-containing subunit gamma (Homo sapiens, UniProt O75747); assay: Inhibition of PIK3C2G (unknown origin) assessed as reduction in substrate phosphorylation by FRET Adapta assay
T2 sequence (O75747 whole entry): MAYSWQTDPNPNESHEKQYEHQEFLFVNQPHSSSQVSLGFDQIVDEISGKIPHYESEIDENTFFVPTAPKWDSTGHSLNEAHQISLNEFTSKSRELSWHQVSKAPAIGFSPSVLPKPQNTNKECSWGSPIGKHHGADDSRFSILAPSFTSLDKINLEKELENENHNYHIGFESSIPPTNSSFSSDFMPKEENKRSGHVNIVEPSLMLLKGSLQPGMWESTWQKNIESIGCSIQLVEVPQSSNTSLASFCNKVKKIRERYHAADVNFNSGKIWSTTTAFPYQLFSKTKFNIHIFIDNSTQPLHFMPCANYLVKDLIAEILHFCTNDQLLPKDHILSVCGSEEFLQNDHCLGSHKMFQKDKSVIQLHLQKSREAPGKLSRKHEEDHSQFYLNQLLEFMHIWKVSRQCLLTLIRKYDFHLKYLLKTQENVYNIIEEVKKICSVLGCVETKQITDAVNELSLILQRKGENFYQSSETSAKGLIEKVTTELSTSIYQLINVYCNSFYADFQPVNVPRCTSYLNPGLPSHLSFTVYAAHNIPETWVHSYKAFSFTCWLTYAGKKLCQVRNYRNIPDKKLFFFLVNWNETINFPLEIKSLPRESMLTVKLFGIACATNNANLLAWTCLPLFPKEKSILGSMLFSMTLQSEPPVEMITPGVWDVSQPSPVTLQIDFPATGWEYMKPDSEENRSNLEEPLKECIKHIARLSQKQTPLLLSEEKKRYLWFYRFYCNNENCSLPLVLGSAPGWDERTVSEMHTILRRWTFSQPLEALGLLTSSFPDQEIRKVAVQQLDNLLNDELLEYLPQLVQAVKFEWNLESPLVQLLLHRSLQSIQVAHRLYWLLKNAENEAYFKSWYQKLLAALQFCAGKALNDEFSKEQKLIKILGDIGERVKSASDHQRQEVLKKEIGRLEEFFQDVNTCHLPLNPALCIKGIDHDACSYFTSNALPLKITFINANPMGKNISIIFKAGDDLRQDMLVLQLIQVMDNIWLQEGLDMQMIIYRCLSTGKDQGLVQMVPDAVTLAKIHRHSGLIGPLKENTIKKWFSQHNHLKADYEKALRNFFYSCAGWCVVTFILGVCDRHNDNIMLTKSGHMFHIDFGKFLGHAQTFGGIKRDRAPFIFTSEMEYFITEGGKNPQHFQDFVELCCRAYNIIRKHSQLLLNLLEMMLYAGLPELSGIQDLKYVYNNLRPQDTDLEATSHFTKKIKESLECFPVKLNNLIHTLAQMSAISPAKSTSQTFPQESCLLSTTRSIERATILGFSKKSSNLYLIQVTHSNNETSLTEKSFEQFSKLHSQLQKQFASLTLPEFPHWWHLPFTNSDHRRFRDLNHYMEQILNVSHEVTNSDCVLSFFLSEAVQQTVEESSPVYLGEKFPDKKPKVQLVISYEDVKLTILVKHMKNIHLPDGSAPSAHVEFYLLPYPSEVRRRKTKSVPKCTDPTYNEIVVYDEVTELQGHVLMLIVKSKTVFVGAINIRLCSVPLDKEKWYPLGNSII

[8] = Oral bioavailability in rat at 1.0 mg/kg; type: ADME, organism-based; conditions: in vivo
[9] = Half life in rat plasma at 0.5 mg/kg, iv; type: ADME, organism-based

Phosphatidylinositol 4-kinase alpha, sequence (P42356 whole entry): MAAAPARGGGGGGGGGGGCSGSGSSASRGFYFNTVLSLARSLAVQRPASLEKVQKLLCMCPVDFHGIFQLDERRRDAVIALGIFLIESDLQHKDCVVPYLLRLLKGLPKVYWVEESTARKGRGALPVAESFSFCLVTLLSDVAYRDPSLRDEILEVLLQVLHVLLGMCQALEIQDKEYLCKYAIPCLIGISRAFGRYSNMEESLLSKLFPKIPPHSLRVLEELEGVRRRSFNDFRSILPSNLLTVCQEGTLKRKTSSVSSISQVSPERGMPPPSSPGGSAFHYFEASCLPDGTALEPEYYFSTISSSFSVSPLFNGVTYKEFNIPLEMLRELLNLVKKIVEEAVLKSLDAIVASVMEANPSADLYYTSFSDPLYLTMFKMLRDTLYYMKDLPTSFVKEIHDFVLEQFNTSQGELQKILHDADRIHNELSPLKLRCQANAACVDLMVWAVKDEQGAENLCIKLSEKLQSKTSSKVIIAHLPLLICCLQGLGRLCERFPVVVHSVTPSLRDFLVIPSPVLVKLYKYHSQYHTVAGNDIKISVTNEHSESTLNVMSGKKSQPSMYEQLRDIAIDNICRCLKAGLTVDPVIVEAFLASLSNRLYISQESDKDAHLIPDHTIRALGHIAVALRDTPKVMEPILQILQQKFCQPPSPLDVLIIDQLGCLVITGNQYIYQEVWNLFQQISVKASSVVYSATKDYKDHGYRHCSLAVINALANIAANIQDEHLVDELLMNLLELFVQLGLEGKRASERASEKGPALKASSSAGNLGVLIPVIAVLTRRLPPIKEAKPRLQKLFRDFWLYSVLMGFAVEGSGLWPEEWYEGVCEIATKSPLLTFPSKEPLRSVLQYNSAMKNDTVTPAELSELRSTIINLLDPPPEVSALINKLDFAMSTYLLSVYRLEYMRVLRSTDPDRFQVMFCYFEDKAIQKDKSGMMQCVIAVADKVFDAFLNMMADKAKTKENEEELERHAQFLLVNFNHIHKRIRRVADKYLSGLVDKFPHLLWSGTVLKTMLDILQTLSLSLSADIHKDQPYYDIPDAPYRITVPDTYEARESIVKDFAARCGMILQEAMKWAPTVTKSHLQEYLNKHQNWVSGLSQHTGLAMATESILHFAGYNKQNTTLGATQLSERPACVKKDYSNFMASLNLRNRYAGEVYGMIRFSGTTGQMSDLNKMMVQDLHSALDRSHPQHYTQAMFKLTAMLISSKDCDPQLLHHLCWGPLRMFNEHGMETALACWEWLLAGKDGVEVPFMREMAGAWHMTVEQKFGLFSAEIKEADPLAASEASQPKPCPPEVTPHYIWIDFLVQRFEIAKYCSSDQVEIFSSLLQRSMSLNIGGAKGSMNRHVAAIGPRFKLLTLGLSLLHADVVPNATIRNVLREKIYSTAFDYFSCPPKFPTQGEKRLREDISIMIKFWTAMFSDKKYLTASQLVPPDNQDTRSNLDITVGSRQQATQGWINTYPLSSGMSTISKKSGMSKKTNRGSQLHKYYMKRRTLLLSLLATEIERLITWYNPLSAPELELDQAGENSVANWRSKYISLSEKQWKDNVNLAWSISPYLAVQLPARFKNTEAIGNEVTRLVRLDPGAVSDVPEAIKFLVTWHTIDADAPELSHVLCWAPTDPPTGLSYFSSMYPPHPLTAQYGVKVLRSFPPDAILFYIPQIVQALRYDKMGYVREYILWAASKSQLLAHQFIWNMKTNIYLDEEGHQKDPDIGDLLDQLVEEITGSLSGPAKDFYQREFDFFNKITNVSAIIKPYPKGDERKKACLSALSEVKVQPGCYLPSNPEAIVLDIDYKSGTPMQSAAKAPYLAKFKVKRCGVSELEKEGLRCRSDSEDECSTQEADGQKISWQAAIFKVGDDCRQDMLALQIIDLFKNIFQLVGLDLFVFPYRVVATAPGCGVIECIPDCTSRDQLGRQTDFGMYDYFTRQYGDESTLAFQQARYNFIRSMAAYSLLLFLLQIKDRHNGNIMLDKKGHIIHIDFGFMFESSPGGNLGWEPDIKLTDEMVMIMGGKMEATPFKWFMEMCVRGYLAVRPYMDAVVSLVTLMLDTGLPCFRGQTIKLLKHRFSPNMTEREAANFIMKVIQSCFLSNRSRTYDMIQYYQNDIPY
Phosphatidylinositol 4-kinase beta, sequence (Q9UBF8 whole entry): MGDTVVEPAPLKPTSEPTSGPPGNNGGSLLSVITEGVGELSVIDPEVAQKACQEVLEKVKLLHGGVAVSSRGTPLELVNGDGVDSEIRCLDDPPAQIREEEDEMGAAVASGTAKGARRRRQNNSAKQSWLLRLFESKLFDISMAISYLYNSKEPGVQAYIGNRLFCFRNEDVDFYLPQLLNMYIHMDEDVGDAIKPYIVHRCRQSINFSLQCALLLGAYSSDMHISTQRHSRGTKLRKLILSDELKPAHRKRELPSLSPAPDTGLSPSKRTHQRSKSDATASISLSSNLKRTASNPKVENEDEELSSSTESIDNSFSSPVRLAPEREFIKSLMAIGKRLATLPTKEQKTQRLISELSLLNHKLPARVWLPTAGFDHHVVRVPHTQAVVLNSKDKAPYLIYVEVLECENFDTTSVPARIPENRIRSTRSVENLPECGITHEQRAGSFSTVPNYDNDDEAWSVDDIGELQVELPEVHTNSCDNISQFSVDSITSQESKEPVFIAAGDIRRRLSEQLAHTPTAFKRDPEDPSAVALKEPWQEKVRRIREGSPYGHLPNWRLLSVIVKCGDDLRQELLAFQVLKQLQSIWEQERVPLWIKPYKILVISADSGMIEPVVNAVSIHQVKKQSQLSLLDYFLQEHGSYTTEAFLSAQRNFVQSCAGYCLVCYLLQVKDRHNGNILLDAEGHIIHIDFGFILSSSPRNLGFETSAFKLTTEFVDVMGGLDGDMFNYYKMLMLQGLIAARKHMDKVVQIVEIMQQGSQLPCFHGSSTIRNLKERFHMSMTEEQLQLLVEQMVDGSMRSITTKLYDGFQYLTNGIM

IC50 [1]: 0.631 nM
Papp [2]: Impermeable
IC50 [3]: 3160 nM
IC50 [4]: > 10000 nM
Vd [5]: 4 L/kg
clearance [6]: 20 mL/min/kg
IC50 [7]: 63.1 nM
bioavailability [8]: < 4%
half-life [9]: 2.9 h
SMILES: Cc1nc(Nc2cccc(N3CCCC3=O)n2)sc1-c1cc2c(c(S(C)(=O)=O)c1)C(=O)N([C@@H](C)C1CC1)C2 [AZD-8154]
Activity (Rattus norvegicus): inactive
